Measurements taken from EP0061654A1, “Vincamine cyclamate, process for its preparation and medicaments containing it” (Heinrich Mack Nachf., priority 1981, dated 1982).
Like-named read-outs stand apart in the source and are kept apart here.

Legend:
[1] = in Wasser und anderen pharmazeutisch annehmbaren Lösungsmitteln; cited from earlier work
[2] = Solubility in pharmaceutically acceptable solvents; assay type: physicochemical; settings: in Wasser, Glycerin/Ethanol-Gemischen oder Ethanol/Wasser-Gemischen

Löslichkeit [2] | Molecule | Löslichkeit [1]
– | CCC12CCCN3CCc4c(n(c5ccccc45)C(O)(C(=O)OC)C1)C32 (centres unmarked) [Vincamin-Base, Vincamin] | praktisch unlöslich
ausreichend löslich | Vincamin-cyclamat | –
